Reference: ChEMBL document CHEMBL4342480, “Design of Dual Inhibitors of Soluble Epoxide Hydrolase and LTA4 Hydrolase” (ACS Med Chem Lett, 2020)

Legend:
Assay type in all cases: functional
Macrophage [1] = test: Antiinflammatory activity in Escherichia coli O6:K2:H1-induced human M1 macrophage assessed as change in PGF2alpha level at 10 uM preincubated for 10 mins followed by Escherichia coli O6:K2:H1-stimulation and measured after 180 mins by UPLC-MS/MS analysis relative to control
Macrophage [2] = test: Antiinflammatory activity in Escherichia coli O6:K2:H1-induced human M2 macrophage assessed as change in 5-HEPE level at 10 uM preincubated for 10 mins followed by Escherichia coli O6:K2:H1-stimulation and measured after 180 mins by UPLC-MS/MS analysis relative to control
Macrophage [3] = test: Antiinflammatory activity in Escherichia coli O6:K2:H1-induced human M2 macrophage assessed as change in 18-HEPE level at 10 uM preincubated for 10 mins followed by Escherichia coli O6:K2:H1-stimulation and measured after 180 mins by UPLC-MS/MS analysis relative to control
Macrophage [4] = test: Antiinflammatory activity in Escherichia coli O6:K2:H1-induced human M2 macrophage assessed as change in PGD2 level at 10 uM preincubated for 10 mins followed by Escherichia coli O6:K2:H1-stimulation and measured after 180 mins by UPLC-MS/MS analysis relative to control
Macrophage [5] = test: Antiinflammatory activity in Escherichia coli O6:K2:H1-induced human M1 macrophage assessed as change in 15-HEPE level at 1 uM preincubated for 10 mins followed by Escherichia coli O6:K2:H1-stimulation and measured after 180 mins by UPLC-MS/MS analysis relative to control
Macrophage [6] = test: Antiinflammatory activity in Escherichia coli O6:K2:H1-induced human M1 macrophage assessed as change in 17-HDHA level at 10 uM preincubated for 10 mins followed by Escherichia coli O6:K2:H1-stimulation and measured after 180 mins by UPLC-MS/MS analysis relative to control
Macrophage [7] = test: Antiinflammatory activity in Escherichia coli O6:K2:H1-induced human M1 macrophage assessed as change in 5.15-dlHETE level at 1 uM preincubated for 10 mins followed by Escherichia coli O6:K2:H1-stimulation and measured after 180 mins by UPLC-MS/MS analysis relative to control
Macrophage [8] = test: Antiinflammatory activity in Escherichia coli O6:K2:H1-induced human M1 macrophage assessed as change in 12-HEPE level at 1 uM preincubated for 10 mins followed by Escherichia coli O6:K2:H1-stimulation and measured after 180 mins by UPLC-MS/MS analysis relative to control
Macrophage [9] = test: Antiinflammatory activity in Escherichia coli O6:K2:H1-induced human M2 macrophage assessed as change in 5.15-dlHETE level at 1 uM preincubated for 10 mins followed by Escherichia coli O6:K2:H1-stimulation and measured after 180 mins by UPLC-MS/MS analysis relative to control
Macrophage [10] = test: Antiinflammatory activity in Escherichia coli O6:K2:H1-induced human M1 macrophage assessed as change in 5-HEPE level at 10 uM preincubated for 10 mins followed by Escherichia coli O6:K2:H1-stimulation and measured after 180 mins by UPLC-MS/MS analysis relative to control
Macrophage [11] = test: Antiinflammatory activity in Escherichia coli O6:K2:H1-induced human M1 macrophage assessed as change in 5-HEPE level at 1 uM preincubated for 10 mins followed by Escherichia coli O6:K2:H1-stimulation and measured after 180 mins by UPLC-MS/MS analysis relative to control
Macrophage [12] = test: Antiinflammatory activity in Escherichia coli O6:K2:H1-induced human M2 macrophage assessed as change in 5-HEPE level at 1 uM preincubated for 10 mins followed by Escherichia coli O6:K2:H1-stimulation and measured after 180 mins by UPLC-MS/MS analysis relative to control
Macrophage [13] = test: Antiinflammatory activity in Escherichia coli O6:K2:H1-induced human M2 macrophage assessed as change in PGF2alpha level at 1 uM preincubated for 10 mins followed by Escherichia coli O6:K2:H1-stimulation and measured after 180 mins by UPLC-MS/MS analysis relative to control
Macrophage [14] = test: Antiinflammatory activity in Escherichia coli O6:K2:H1-induced human M1 macrophage assessed as change in 12-HETE level at 1 uM preincubated for 10 mins followed by Escherichia coli O6:K2:H1-stimulation and measured after 180 mins by UPLC-MS/MS analysis relative to control
Macrophage [15] = test: Antiinflammatory activity in Escherichia coli O6:K2:H1-induced human M1 macrophage assessed as change in 15-HETE level at 1 uM preincubated for 10 mins followed by Escherichia coli O6:K2:H1-stimulation and measured after 180 mins by UPLC-MS/MS analysis relative to control
Macrophage [16] = test: Antiinflammatory activity in Escherichia coli O6:K2:H1-induced human M2 macrophage assessed as change in LTB4 level at 10 uM preincubated for 10 mins followed by Escherichia coli O6:K2:H1-stimulation and measured after 180 mins by UPLC-MS/MS analysis relative to control
Macrophage [17] = test: Antiinflammatory activity in Escherichia coli O6:K2:H1-induced human M1 macrophage assessed as change in 12-HEPE level at 10 uM preincubated for 10 mins followed by Escherichia coli O6:K2:H1-stimulation and measured after 180 mins by UPLC-MS/MS analysis relative to control
Macrophage [18] = test: Antiinflammatory activity in Escherichia coli O6:K2:H1-induced human M2 macrophage assessed as change in total LTB4 level at 10 uM preincubated for 10 mins followed by Escherichia coli O6:K2:H1-stimulation and measured after 180 mins by UPLC-MS/MS analysis relative to control
Macrophage [19] = test: Antiinflammatory activity in Escherichia coli O6:K2:H1-induced human M2 macrophage assessed as change in 15-HEPE level at 1 uM preincubated for 10 mins followed by Escherichia coli O6:K2:H1-stimulation and measured after 180 mins by UPLC-MS/MS analysis relative to control
Macrophage [20] = test: Antiinflammatory activity in Escherichia coli O6:K2:H1-induced human M2 macrophage assessed as change in 12-HETE level at 1 uM preincubated for 10 mins followed by Escherichia coli O6:K2:H1-stimulation and measured after 180 mins by UPLC-MS/MS analysis relative to control
Macrophage [21] = test: Antiinflammatory activity in Escherichia coli O6:K2:H1-induced human M1 macrophage assessed as change in total LTB4 level at 1 uM preincubated for 10 mins followed by Escherichia coli O6:K2:H1-stimulation and measured after 180 mins by UPLC-MS/MS analysis relative to control
Macrophage [22] = test: Antiinflammatory activity in Escherichia coli O6:K2:H1-induced human M2 macrophage assessed as change in 12-HEPE level at 10 uM preincubated for 10 mins followed by Escherichia coli O6:K2:H1-stimulation and measured after 180 mins by UPLC-MS/MS analysis relative to control
Macrophage [23] = test: Antiinflammatory activity in Escherichia coli O6:K2:H1-induced human M1 macrophage assessed as change in 5-HETE level at 10 uM preincubated for 10 mins followed by Escherichia coli O6:K2:H1-stimulation and measured after 180 mins by UPLC-MS/MS analysis relative to control
Macrophage [24] = test: Antiinflammatory activity in Escherichia coli O6:K2:H1-induced human M1 macrophage assessed as change in 5.15-dlHETE level at 10 uM preincubated for 10 mins followed by Escherichia coli O6:K2:H1-stimulation and measured after 180 mins by UPLC-MS/MS analysis relative to control

O=C(Cc1ccc(Oc2nc3ccccc3s2)cc1F)NCCc1ccc(F)cc1
Activity (Macrophage [1]): 80%
Activity (Macrophage [2]): 97%
Activity (Macrophage [3]): 96%
Activity (Macrophage [4]): 64%
Activity (Macrophage [5]): 97%
Activity (Macrophage [6]): 269%
Activity (Macrophage [7]): 152%
Activity (Macrophage [8]): 95%
Activity (Macrophage [9]): 93%
Activity (Macrophage [10]): 65%
Activity (Macrophage [11]): 102%
Activity (Macrophage [12]): 93%
Activity (Macrophage [13]): 63%
Activity (Macrophage [14]): 99%
Activity (Macrophage [15]): 102%
Activity (Macrophage [16]): 23%
Activity (Macrophage [17]): 113%
Activity (Macrophage [18]): 72%
Activity (Macrophage [19]): 81%
Activity (Macrophage [20]): 87%
Activity (Macrophage [21]): 132%
Activity (Macrophage [22]): 105%
Activity (Macrophage [23]): 42%
Activity (Macrophage [24]): 97%
